Read-outs that look alike come from different tables or passages of the source.
What was measured:
[1] = system: EBV; settings: normalized mean of EBV replication readout
[2] = system: HCV replicon; type: cell-based; settings: normalized mean of HCV replicon readout
[3] = system: influenza A H1N1 virus; settings: 48 hr post-treatment, A549
[4] = system: F. novicida (strain U112); type: cell-based
[5] = system: HIV1 strain NL4-3; type: cell-based; settings: normalized mean of HIV1 replication readout

## RKSASMS [CPEP82]
[1]
  EBV Norm MEAN: 1.372
[2]
  HCV Norm MEAN: 0.267
[3]; 200 µM peptide
  Neuraminidase activity normalized to vehicle: 0,8479
[3]; 0,823 µM peptide
  Neuraminidase activity normalized to vehicle: 0,801
[3]; 22,2 µM peptide
  Neuraminidase activity normalized to vehicle: 0,7544
[3]; 2,4691 µM peptide
  Neuraminidase activity normalized to vehicle: 0,6968
[3]; 7,4074 µM peptide
  Neuraminidase activity normalized to vehicle: 0,5924
[3]; 66,6667 µM peptide
  Neuraminidase activity normalized to vehicle: 0,9164
[4]
  Francisella novicida Norm AUC: 1.194
[5]
  HIV1 Norm MEAN: 1.975

## TIESEV [CPEP59]
[1]
  EBV Norm MEAN: 1.967
[2]
  HCV Norm MEAN: 0.1611
[3]; 200 µM peptide
  Neuraminidase activity normalized to vehicle: 1,1965
[3]; 0,823 µM peptide
  Neuraminidase activity normalized to vehicle: 1,1044
[3]; 22,2 µM peptide
  Neuraminidase activity normalized to vehicle: 1,0974
[3]; 2,4691 µM peptide
  Neuraminidase activity normalized to vehicle: 1,0801
[3]; 7,4074 µM peptide
  Neuraminidase activity normalized to vehicle: 1,0995
[3]; 66,6667 µM peptide
  Neuraminidase activity normalized to vehicle: 1,0953
[4]
  Francisella novicida Norm AUC: 0.4462
  inhibition of PI incorporation in F. novicida infected BMDMs (in words): one of the most potent virus-derived peptides to inhibit PI incorporation
[5]
  HIV1 Norm MEAN: 0.5804

## FPESLIL [CPEP76]
[1]
  EBV Norm MEAN: 1.102
[2]
  HCV Norm MEAN: 0.1881
[3]; 200 µM peptide
  Neuraminidase activity normalized to vehicle: 0,7678
[3]; 0,823 µM peptide
  Neuraminidase activity normalized to vehicle: 0,7594
[3]; 22,2 µM peptide
  Neuraminidase activity normalized to vehicle: 0,787
[3]; 2,4691 µM peptide
  Neuraminidase activity normalized to vehicle: 0,7722
[3]; 7,4074 µM peptide
  Neuraminidase activity normalized to vehicle: 0,7943
[3]; 66,6667 µM peptide
  Neuraminidase activity normalized to vehicle: 0,7797
[4]
  Francisella novicida Norm AUC: 0.9207
[5]
  HIV1 Norm MEAN: 0.9579

## GGKWSKLS [CPEP134]
[1]
  EBV Norm MEAN: 0.3842
[2]
  HCV Norm MEAN: 0.2388
[3]; 200 µM peptide
  Neuraminidase activity normalized to vehicle: 0,426
[3]; 0,823 µM peptide
  Neuraminidase activity normalized to vehicle: 0,9416
[3]; 22,2 µM peptide
  Neuraminidase activity normalized to vehicle: 0,8116
[3]; 2,4691 µM peptide
  Neuraminidase activity normalized to vehicle: 0,8887
[3]; 7,4074 µM peptide
  Neuraminidase activity normalized to vehicle: 0,9196
[3]; 66,6667 µM peptide
  Neuraminidase activity normalized to vehicle: 0,7036
[4]
  Francisella novicida Norm AUC: 1.142
[5]
  HIV1 Norm MEAN: 1.139

## PVHAGPIAP [CPEP87]
[1]
  EBV Norm MEAN: 0.6567
[2]
  HCV Norm MEAN: 0.2137
[3]; 200 µM peptide
  Neuraminidase activity normalized to vehicle: 0,6355
[3]; 0,823 µM peptide
  Neuraminidase activity normalized to vehicle: 1,0155
[3]; 22,2 µM peptide
  Neuraminidase activity normalized to vehicle: 0,8043
[3]; 2,4691 µM peptide
  Neuraminidase activity normalized to vehicle: 0,8845
[3]; 7,4074 µM peptide
  Neuraminidase activity normalized to vehicle: 0,906
[3]; 66,6667 µM peptide
  Neuraminidase activity normalized to vehicle: 0,7025
[4]
  Francisella novicida Norm AUC: 1.084
[5]
  HIV1 Norm MEAN: 0.4

## CPEP126: peptide of the viral peptide library; sequence page not shown (TQNLYPDLSEIKK)
[1]; peptide screen
  EBV Norm MEAN: 0.8026
[2]; peptide screen
  HCV Norm MEAN: 0.4853
[3]; 200 µM peptide
  Neuraminidase activity normalized to vehicle: 0,8408
[3]; 0,823 µM peptide
  Neuraminidase activity normalized to vehicle: 0,9498
[3]; 22,2 µM peptide
  Neuraminidase activity normalized to vehicle: 0,8904
[3]; 2,4691 µM peptide
  Neuraminidase activity normalized to vehicle: 0,9431
[3]; 7,4074 µM peptide
  Neuraminidase activity normalized to vehicle: 0,8627
[3]; 66,6667 µM peptide
  Neuraminidase activity normalized to vehicle: 0,9364
[4]
  Francisella novicida Norm AUC: 1.192
[5]; peptide screen
  HIV1 Norm MEAN: 0.6553

## ARARALARGAGPANSV [CPEP47]
[1]; peptide screen
  EBV Norm MEAN: 1.295
[2]; peptide screen
  HCV Norm MEAN: 1.1445
[3]; 200 µM peptide
  Neuraminidase activity normalized to vehicle: 1,0179
[3]; 0,823 µM peptide
  Neuraminidase activity normalized to vehicle: 1,0745
[3]; 22,2 µM peptide
  Neuraminidase activity normalized to vehicle: 1,1923
[3]; 2,4691 µM peptide
  Neuraminidase activity normalized to vehicle: 1,0399
[3]; 7,4074 µM peptide
  Neuraminidase activity normalized to vehicle: 1,1089
[3]; 66,6667 µM peptide
  Neuraminidase activity normalized to vehicle: 1,0424
[4]
  Francisella novicida Norm AUC: 0.949
[5]; peptide screen
  HIV1 Norm MEAN: 2.79

## QILVESPTVLESGTKE [CPEP80]
[1]; peptide screen
  EBV Norm MEAN: 0.8761
[2]; peptide screen
  HCV Norm MEAN: 0.9076
[3]; 200 µM peptide
  Neuraminidase activity normalized to vehicle: 0,8685
[3]; 0,823 µM peptide
  Neuraminidase activity normalized to vehicle: 1,0444
[3]; 22,2 µM peptide
  Neuraminidase activity normalized to vehicle: 1,1492
[3]; 2,4691 µM peptide
  Neuraminidase activity normalized to vehicle: 1,0137
[3]; 7,4074 µM peptide
  Neuraminidase activity normalized to vehicle: 1,0974
[3]; 66,6667 µM peptide
  Neuraminidase activity normalized to vehicle: 0,9708
[4]
  Francisella novicida Norm AUC: 0.9366
[5]; peptide screen
  HIV1 Norm MEAN: 0.6346

## PPPPY [CPEP132]
[1]
  EBV Norm MEAN: 1.203
[2]
  HCV Norm MEAN: 0.2215
[3]; 200 µM peptide
  Neuraminidase activity normalized to vehicle: 0,8244
[3]; 0,823 µM peptide
  Neuraminidase activity normalized to vehicle: 0,8549
[3]; 22,2 µM peptide
  Neuraminidase activity normalized to vehicle: 0,9192
[3]; 2,4691 µM peptide
  Neuraminidase activity normalized to vehicle: 0,87
[3]; 7,4074 µM peptide
  Neuraminidase activity normalized to vehicle: 0,8306
[3]; 66,6667 µM peptide
  Neuraminidase activity normalized to vehicle: 1,0078
[4]
  Francisella novicida Norm AUC: 0.9275
[5]
  HIV1 Norm MEAN: 1.621

## DDLYEEV [CPEP111]
[1]
  EBV Norm MEAN: 0.5736
[2]
  HCV Norm MEAN: 0.2545
[3]; 200 µM peptide
  Neuraminidase activity normalized to vehicle: 0,7987
[3]; 0,823 µM peptide
  Neuraminidase activity normalized to vehicle: 0,9384
[3]; 22,2 µM peptide
  Neuraminidase activity normalized to vehicle: 0,8898
[3]; 2,4691 µM peptide
  Neuraminidase activity normalized to vehicle: 0,8026
[3]; 7,4074 µM peptide
  Neuraminidase activity normalized to vehicle: 0,8887
[3]; 66,6667 µM peptide
  Neuraminidase activity normalized to vehicle: 0,8909
[4]
  Francisella novicida Norm AUC: 0.6875
[5]
  HIV1 Norm MEAN: 0.957

## PYQLT [CPEP58]
[1]
  EBV Norm MEAN: 0.8535
[2]
  HCV Norm MEAN: 0.1961
[3]; 200 µM peptide
  Neuraminidase activity normalized to vehicle: 0,7155
[3]; 0,823 µM peptide
  Neuraminidase activity normalized to vehicle: 0,7664
[3]; 22,2 µM peptide
  Neuraminidase activity normalized to vehicle: 0,8252
[3]; 2,4691 µM peptide
  Neuraminidase activity normalized to vehicle: 0,7115
[3]; 7,4074 µM peptide
  Neuraminidase activity normalized to vehicle: 0,806
[3]; 66,6667 µM peptide
  Neuraminidase activity normalized to vehicle: 0,8444
[4]
  Francisella novicida Norm AUC: 0.486
[5]
  HIV1 Norm MEAN: 1.506

## PPIPPPR [CPEP151]
[1]
  EBV Norm MEAN: 1.55
[2]
  HCV Norm MEAN: 0.3254
[3]; 200 µM peptide
  Neuraminidase activity normalized to vehicle: 1,016
[3]; 0,823 µM peptide
  Neuraminidase activity normalized to vehicle: 0,9906
[3]; 22,2 µM peptide
  Neuraminidase activity normalized to vehicle: 0,9273
[3]; 2,4691 µM peptide
  Neuraminidase activity normalized to vehicle: 0,9123
[3]; 7,4074 µM peptide
  Neuraminidase activity normalized to vehicle: 0,9111
[3]; 66,6667 µM peptide
  Neuraminidase activity normalized to vehicle: 0,9435
[4]
  Francisella novicida Norm AUC: 1.288
[5]
  HIV1 Norm MEAN: 0.669

## CPEP102: peptide of the viral peptide library; sequence page not shown (PHGPVQLSYYD)
[1]
  EBV Norm MEAN: 1.648
[2]
  HCV Norm MEAN: 0.8145
[3]; 200 µM peptide
  Neuraminidase activity normalized to vehicle: 0,8099
[3]; 0,823 µM peptide
  Neuraminidase activity normalized to vehicle: 0,6759
[3]; 22,2 µM peptide
  Neuraminidase activity normalized to vehicle: 0,942
[3]; 2,4691 µM peptide
  Neuraminidase activity normalized to vehicle: 1,0283
[3]; 7,4074 µM peptide
  Neuraminidase activity normalized to vehicle: 0,877
[3]; 66,6667 µM peptide
  Neuraminidase activity normalized to vehicle: 1,0125
[4]
  Francisella novicida Norm AUC: 0.8816
[5]
  HIV1 Norm MEAN: 1.958

## MAGRSGDSDEELIR [CPEP91]
[1]; peptide screen
  EBV Norm MEAN: 0.5729
[2]; peptide screen
  HCV Norm MEAN: 0.7752
[3]; 200 µM peptide
  Neuraminidase activity normalized to vehicle: 0,8049
[3]; 0,823 µM peptide
  Neuraminidase activity normalized to vehicle: 0,8065
[3]; 22,2 µM peptide
  Neuraminidase activity normalized to vehicle: 0,8658
[3]; 2,4691 µM peptide
  Neuraminidase activity normalized to vehicle: 0,8956
[3]; 7,4074 µM peptide
  Neuraminidase activity normalized to vehicle: 0,8592
[3]; 66,6667 µM peptide
  Neuraminidase activity normalized to vehicle: 0,8689
[4]
  Francisella novicida Norm AUC: 1.031
[5]; peptide screen
  HIV1 Norm MEAN: 0.2767

## NKVGSLQYLALAALI [CPEP60]
[1]; peptide screen
  EBV Norm MEAN: 0.706
[2]; peptide screen
  HCV Norm MEAN: 1.268
[3]; 200 µM peptide
  Neuraminidase activity normalized to vehicle: 0,117
[3]; 0,823 µM peptide
  Neuraminidase activity normalized to vehicle: 0,8991
[3]; 22,2 µM peptide
  Neuraminidase activity normalized to vehicle: 0,7636
[3]; 2,4691 µM peptide
  Neuraminidase activity normalized to vehicle: 1,0157
[3]; 7,4074 µM peptide
  Neuraminidase activity normalized to vehicle: 0,7801
[3]; 66,6667 µM peptide
  Neuraminidase activity normalized to vehicle: 0,247
[4]
  Francisella novicida Norm AUC: 1.045
[5]; peptide screen
  HIV1 Norm MEAN: 4.7165

## YRHHY [CPEP48]
[1]
  EBV Norm MEAN: 1.742
[2]
  HCV Norm MEAN: 0.151
[3]; 200 µM peptide
  Neuraminidase activity normalized to vehicle: 1,01
[3]; 0,823 µM peptide
  Neuraminidase activity normalized to vehicle: 0,9611
[3]; 22,2 µM peptide
  Neuraminidase activity normalized to vehicle: 1,0228
[3]; 2,4691 µM peptide
  Neuraminidase activity normalized to vehicle: 0,8941
[3]; 7,4074 µM peptide
  Neuraminidase activity normalized to vehicle: 0,9555
[3]; 66,6667 µM peptide
  Neuraminidase activity normalized to vehicle: 1,0901
[4]
  Francisella novicida Norm AUC: 0.6002
[5]
  HIV1 Norm MEAN: 1.395
